Like-named read-outs stand apart in the source and are kept apart here. Each block holds one molecule with its values, some of them ahead of it.
Molecular target: hT2R8 (Homo sapiens (Human), UniProt Q9NYW2)
Assay: hT2R8 antagonist high-throughput FLIPR assay, stable cell line with G16g44, agonist andrographolide
Type: cell-based
Description: After a ligand is identified for a particular hT2R, a HEK293 cell line stably expressing both the hT2R and G16gust44 are generated, facilitating future screening assays to identify other ligands that activate the particular hT2R or which modulate (block or enhance) the activation of this hT2R by another bitter ligand such as a bitter compound contained in coffee. This avoids the need for transient transfection.
(§1) To identify antagonists, cell lines stably expressing hT2R8 and hT2R14, respectively, together with the promiscuous chimeric G16g44 protein were generated as described in previous patent applications. A high-throughput assay was established using the stable cell lines and FLIPR (Fluorescent Imaging Plate Reader). An agonist of hT2R8 or hT2R14 was used to activate the receptors up to 70-80% of their respective maximal activity. For hT2R8, the agonist used was andrographolide (200 λM); for hT2R14, it was aristolochic acid (3 μM). To identify antagonists, compounds with diverse chemical structures were added together with the agonist.
as §1, with “hT2R8” for “hT2R8 and hT2R14, respectively,”, “hT2R8” for “hT2R8 or hT2R14”, “(200” for “(200 λM); for hT2R14, it was aristolochic acid (3”

[1] = read-out: IC50 on hT2R8 bitter receptor
[2] = table after Example 10-97, read-out: hT2R8 IC50
[3] = table after Example 12-37, read-out: hT2R8 IC50
[4] = unit uM, read-out: IC50 on hT2R08 bitter receptor

hT2R8, sequence (Q9NYW2 whole entry): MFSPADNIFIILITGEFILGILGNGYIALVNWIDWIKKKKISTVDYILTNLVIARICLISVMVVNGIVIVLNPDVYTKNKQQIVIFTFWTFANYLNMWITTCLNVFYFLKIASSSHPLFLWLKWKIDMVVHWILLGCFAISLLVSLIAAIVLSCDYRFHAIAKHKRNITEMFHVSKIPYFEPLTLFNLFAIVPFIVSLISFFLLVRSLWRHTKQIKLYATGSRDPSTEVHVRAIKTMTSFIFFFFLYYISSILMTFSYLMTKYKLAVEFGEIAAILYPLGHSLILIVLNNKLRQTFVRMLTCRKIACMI

Compound: Cc1noc(C)c1Cn1cc(NC(=O)c2cc3c(cc2Cl)OCCO3)cn1 [Example 4-90, 7-chloro-N-(1-((3,5-dimethylisoxazol-4-yl)methyl)-1H-pyrazol-4-yl)-2,3-dihydrobenzo[b][1,4]dioxine-6-carboxamide]
IC50 (Table A, read-out: hT2R8 IC50): 0.1 µM

Compound: Cc1noc(C)c1Cn1cc(NC(=O)CCCc2ccccc2)cn1 [Example 4-56, N-(1-((3,5-dimethylisoxazol-4-yl)methyl)-1H-pyrazol-4-yl)-4-phenylbutanamide]
IC50 (Table A, read-out: hT2R8 IC50): 0.83 µM

Compound: Cc1noc(C)c1Cn1cc(N2C(=O)NC(CCCc3ccccc3)C2=O)cn1 (stereo not drawn) [Example 10-46, 3-(1-((3,5-dimethylisoxazol-4-yl)methyl)-1H-pyrazol-4-yl)-5-(3-phenylpropyl)imidazolidine-2,4-dione]
IC50 [1]: 0.17 µM | IC50 [2]: 0.484 µM

Compound: CNC(=O)c1cccc(CN2CC(=O)N(c3cnn(Cc4c(C)noc4C)c3)C2=O)c1 [Example 10-9, 3-((3-(1-((3,5-dimethylisoxazol-4-yl)methyl)-1H-pyrazol-4-yl)-2,4-dioxoimidazolidin-1-yl)methyl)-N-methylbenzamide]
IC50 [1]: 0.14 µM | IC50 [2]: 0.141 µM

Compound: Cc1cc2cc(C(=O)Nc3cnn(Cc4c(C)noc4C)c3)ccc2o1 [Example 4-75, N-(1-((3,5-dimethylisoxazol-4-yl)methyl)-1H-pyrazol-4-yl)-2-methylbenzofuran-5-carboxamide]
IC50 (Table A, read-out: hT2R8 IC50): 2.1 µM

Compound: Cc1noc(C)c1Cn1cc(NC(=O)C(CO)c2ccccc2)cn1 (stereo not drawn) [Example 4-40, N-(1-((3,5-dimethylisoxazol-4-yl)methyl)-1H-pyrazol-4-yl)-3-hydroxy-2-phenylpropanamide]
IC50 (Table A, read-out: hT2R8 IC50): 0.96 µM

Compound: Cc1noc(C)c1Cn1cc(N2C(=O)C(Cc3ccccc3)N(C)C2=O)cn1 (stereo not drawn) [Example 10-42, 5-benzyl-3-(1-((3,5-dimethylisoxazol-4-yl)methyl)-1H-pyrazol-4-yl)-1-methylimidazolidine-2,4-dione]
IC50 [1]: 0.15 µM | IC50 [2]: 0.017 µM

Compound: Cc1noc(C)c1Cn1cc(N2C(=O)CN(Cc3cccc(C#N)c3)C2=O)cn1 [Example 10-25, 3-((3-(1-((3,5-dimethylisoxazol-4-yl)methyl)-1H-pyrazol-4-yl)-2,4-dioxoimidazolidin-1-yl)methyl)benzonitrile]
IC50 [2]: 1 µM | IC50 [4]: 1 µM

Compound: CCCCn1c(=O)n(-c2cnn(Cc3c(C)noc3C)c2)c(=O)n1Cc1ccccc1 [Example 10-95]
IC50 [1]: 0.41 µM | IC50 [2]: 0.409 µM

Compound: Cc1noc(C)c1Cn1cc(N2C(=O)CN(Cc3ccc(F)cc3)C2=O)cn1 [Example 10-31, 3-(1-((3,5-dimethylisoxazol-4-yl)methyl)-1H-pyrazol-4-yl)-1-(4-fluorobenzyl)imidazolidine-2,4-dione]
IC50 [2]: 0.045 µM | IC50 [4]: 0.05 µM

Compound: Cc1noc(C)c1Cn1cc(N2C(=O)N[C@@H](Cc3ccccc3)C2=O)cn1 [Example 10-3, (S)-5-benzyl-3-(1-((3,5-dimethylisoxazol-4-yl)methyl)-1H-pyrazol-4-yl)imidazolidine-2,4-dione]
IC50 [2]: 0.113 µM

Compound: Cc1noc(C)c1Cn1cc(N2C(=O)NC(Cc3ccc(O)c(O)c3)C2=O)cn1 (stereo not drawn) [Example 10-60, 5-(3,4-dihydroxybenzyl)-3-(1-((3,5-dimethylisoxazol-4-yl)methyl)-1H-pyrazol-4-yl)imidazolidine-2,4-dione]
IC50 [1]: 0.51 µM | IC50 [2]: 0.513 µM

Compound: Cc1noc(C)c1Cn1cc(NC(=O)c2ccc3[nH]nnc3c2)cn1 [Example 4-87, N-(1-((3,5-dimethylisoxazol-4-yl)methyl)-1H-pyrazol-4-yl)-1H-benzo[d][1,2,3]triazole-5-carboxamide]
IC50 (Table A, read-out: hT2R8 IC50): 0.6 µM

Compound: Cc1noc(C)c1Cn1cc(N2C(=O)CN(Cc3ccn(C)n3)C2=O)cn1 [Example 10-38, 3-(1-((3,5-dimethylisoxazol-4-yl)methyl)-1H-pyrazol-4-yl)-1-((1-methyl-1H-pyrazol-3-yl)methyl)imidazolidine-2,4-dione]
IC50 [2]: 0.363 µM | IC50 [4]: 0.4 µM

Compound: COC(=O)c1sccc1S(=O)(=O)Nc1cnn(Cc2c(C)noc2C)c1 [Example 4-104, methyl 3-(N-(1-((3,5-dimethylisoxazol-4-yl)methyl)-1H-pyrazol-4-yl)sulfamoyl)thiophene-2-carboxylate]
IC50 (Table A, read-out: hT2R8 IC50): 1.25 µM

Other lines, results leading:

IC50 [1]: 0.02 µM
Compound: Cc1noc(C)c1Cn1cc(N2C(=O)[C@H](C)N(Cc3cccc(O)c3)C2=O)cn1 [Example 12-6, (S)-3-(1-((3,5-dimethylisoxazol-4-yl)methyl)-1H-pyrazol-4-yl)-1-(3-hydroxybenzyl)-5-methylimidazolidine-2,4-dione]

IC50 [1]: 0.04 µM
Compound: Cc1noc(C)c1Cn1cc(N2C(=O)N(Cc3ccc(C#N)cc3)C(C)(C)C2=O)cn1 [Example 12-16, 4-((3-(1-((3,5-dimethylisoxazol-4-yl)methyl)-1H-pyrazol-4-yl)-5,5-dimethyl-2,4-dioxoimidazolidin-1-yl)methyl)benzonitrile]

IC50 [1]: 0.13 µM
Compound: COCc1cccc(CN2C(=O)N(c3cnn(Cc4c(C)noc4C)c3)C(=O)C2(C)C)c1 [Example 12-35, 3-(1-((3,5-dimethylisoxazol-4-yl)methyl)-1H-pyrazol-4-yl)-1-(3-(methoxymethyl)benzyl)-5,5-dimethylimidazolidine-2,4-dione]

IC50 [1]: 0.08 µM
Compound: COc1ccc(CN2C(=O)N(c3cnn(Cc4c(C)noc4C)c3)C(=O)C2(C)C)cc1OC [Example 12-30, 1-(3,4-dimethoxybenzyl)-3-(1-((3,5-dimethylisoxazol-4-yl)methyl)-1H-pyrazol-4-yl)-5,5-dimethylimidazolidine-2,4-dione]

IC50 [1]: 0.22 µM
Compound: Cc1noc(C)c1Cn1cc(N2C(=O)N(Cc3cccnc3)C(C)(C)C2=O)cn1 [Example 12-36, 3-(1-((3,5-dimethylisoxazol-4-yl)methyl)-1H-pyrazol-4-yl)-5,5-dimethyl-1-(pyridin-3-ylmethyl)imidazolidine-2,4-dione]

IC50 [3]: 0.19 µM
Compound: Cc1noc(C)c1Cn1cc(N2C(=O)N(Cc3ccncc3)C(C)(C)C2=O)cn1 [Example 12-52, 3-(1-((3,5-dimethylisoxazol-4-yl)methyl)-1H-pyrazol-4-yl)-5,5-dimethyl-1-(pyridin-4-ylmethyl)imidazolidine-2,4-dione]

IC50 [1]: 0.03 µM
Compound: Cc1noc(C)c1Cn1cc(N2C(=O)C3Cc4cc(O)ccc4CN3C2=O)cn1 (stereo not drawn) [Example 13-3, 2-(1-((3,5-dimethylisoxazol-4-yl)methyl)-1H-pyrazol-4-yl)-8-hydroxy-10,10a-dihydroimidazo[1,5-b]isoquinoline-1,3(2H,5H)-dione]

IC50 [1]: 0.02 µM
Compound: Cc1noc(C)c1Cn1cc(N2C(=O)N(Cc3cccc(O)c3)C3(CC3)C2=O)cn1 [Example 12-15, 6-(1-((3,5-dimethylisoxazol-4-yl)methyl)-1H-pyrazol-4-yl)-4-(3-hydroxybenzyl)-4,6-diazaspiro[2.4]heptane-5,7-dione]

IC50 [1]: 0.03 µM
Compound: Cc1noc(C)c1Cn1cc(N2C(=O)[C@H]3Cc4ccc(O)cc4CN3C2=O)cn1 [Example 13-2, (R)-2-(1-((3,5-dimethylisoxazol-4-yl)methyl)-1H-pyrazol-4-yl)-7-hydroxy-10,10a-dihydroimidazo[1,5-b]isoquinoline-1,3(2H,5H)-dione]

IC50 [3]: 0.53 µM
Compound: Cc1noc(C)c1Cn1cc(N2C(=O)N(Cc3ccc(F)cc3F)C(C)(C)C2=O)cn1 [Example 12-74, 1-(2,4-difluorobenzyl)-3-(1-((3,5-dimethylisoxazol-4-yl)methyl)-1H-pyrazol-4-yl)-5,5-dimethylimidazolidine-2,4-dione]

IC50 [3]: 1.22 µM
Compound: Cc1ccc(CN2C(=O)N(c3cnn(Cc4c(C)noc4C)c3)C(=O)C2(C)C)cc1C [Example 12-83, 1-(3,4-dimethylbenzyl)-3-(1-((3,5-dimethylisoxazol-4-yl)methyl)-1H-pyrazol-4-yl)-5,5-dimethylimidazolidine-2,4-dione]

IC50 [3]: 0.32 µM
Compound: Cc1noc(C)c1Cn1cc(N2C(=O)N(Cc3ccccc3)C(C)(C)C2=O)cn1 [Example 12-67, 1-benzyl-3-(1-((3,5-dimethylisoxazol-4-yl)methyl)-1H-pyrazol-4-yl)-5,5-dimethylimidazolidine-2,4-dione]

IC50 [3]: 0.42 µM
Compound: Cc1noc(C)c1Cn1cc(N2C(=O)N(Cc3ccn(C)n3)C(C)(C)C2=O)cn1 [Example 12-71, 3-(1-((3,5-dimethylisoxazol-4-yl)methyl)-1H-pyrazol-4-yl)-5,5-dimethyl-1-((1-methyl-1H-pyrazol-3-yl)methyl)imidazolidine-2,4-dione]

IC50 [1]: 0.1 µM
Compound: Cc1ccccc1CN1C(=O)N(c2cnn(Cc3c(C)noc3C)c2)C(=O)C1(C)C [Example 12-22, 3-(1-((3,5-dimethylisoxazol-4-yl)methyl)-1H-pyrazol-4-yl)-5,5-dimethyl-1-(2-methylbenzyl)imidazolidine-2,4-dione]

IC50 [1]: 0.59 µM
Compound: COCCN1C(=O)N(c2cnn(Cc3c(C)noc3C)c2)C(=O)C1(C)C [Example 12-28, 3-(1-((3,5-dimethylisoxazol-4-yl)methyl)-1H-pyrazol-4-yl)-1-(2-methoxyethyl)-5,5-dimethylimidazolidine-2,4-dione]

IC50 [3]: 0.36 µM
Compound: Cc1noc(C)c1Cn1cc(N2C(=O)N(Cc3ccc(CO)cc3)C(C)(C)C2=O)cn1 [Example 12-88, 3-(1-((3,5-dimethylisoxazol-4-yl)methyl)-1H-pyrazol-4-yl)-1-(4-(hydroxymethyl)benzyl)-5,5-dimethylimidazolidine-2,4-dione]

From patent US9247759B2, “Identification of human T2R receptors that respond to bitter compounds that elicit the bitter taste in compositions, and the use thereof in assays to identify compounds that inhibit (block) bitter taste in compositions and use thereof” (SENOMYX, INC., priority 2007, dated 2016)
